Test results reported in ChEMBL document CHEMBL1136862, “Development of thioquinazolinones, allosteric Chk1 kinase inhibitors” (Bioorg Med Chem Lett, 2009).

Columns and labels:
[1] = biological target: T1, Serine/threonine-protein kinase Chk1 (Homo sapiens, UniProt O14757); experiment: Inhibition of C-terminal 6-His tagged human Chk1 by HTRF assay in presence of 0.1 mM ATP
T1 sequence (O14757 whole entry): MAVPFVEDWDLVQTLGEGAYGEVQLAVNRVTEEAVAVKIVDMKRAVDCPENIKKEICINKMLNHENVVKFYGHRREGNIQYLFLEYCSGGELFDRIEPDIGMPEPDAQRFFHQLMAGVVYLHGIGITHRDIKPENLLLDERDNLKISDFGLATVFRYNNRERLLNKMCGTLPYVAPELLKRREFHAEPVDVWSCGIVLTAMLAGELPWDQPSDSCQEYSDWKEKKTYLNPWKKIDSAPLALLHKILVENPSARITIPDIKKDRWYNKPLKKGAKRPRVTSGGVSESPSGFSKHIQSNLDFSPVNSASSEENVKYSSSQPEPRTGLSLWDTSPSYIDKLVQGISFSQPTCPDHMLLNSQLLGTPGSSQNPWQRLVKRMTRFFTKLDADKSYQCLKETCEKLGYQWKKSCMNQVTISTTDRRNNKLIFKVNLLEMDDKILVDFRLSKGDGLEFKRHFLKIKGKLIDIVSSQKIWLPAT

[2] = biological target: T2, Serine/threonine-protein kinase Chk1 (Homo sapiens) (UniProt O14757); experiment: Inhibition of C-terminal 6-His tagged human Chk1 at 100 uM by HTRF assay in presence of 0.1 mM ATP
T2 sequence (whole entry): T1 sequence (O14757 whole entry)

[3] = biological target: T1, Serine/threonine-protein kinase Chk1; experiment: Inhibition of C-terminal 6-His tagged human Chk1 by HTRF assay in presence of 2.0 mM ATP

IC50 [1] [µM]	inhibition [2] [%]	other results	Structure (SMILES)
41	–	–	CCCCC(Sc1nc2ccccc2c(=O)n1-c1ccccc1Cl)C(=O)N1CCC(C(N)=O)CC1 (stereo not drawn)
20	–	–	CCCCC(Sc1nc2c(O)cccc2c(=O)n1-c1cccc(Cl)c1)C(=O)N1CCC(C(N)=O)CC1 (stereo not drawn)
3.3	–	–	CCCCC(Sc1nc2ccccc2c(=O)n1-c1ccccc1)C(=O)N1CCN(c2ccccc2)CC1 (stereo not drawn)
–	17	–	CCCCC(Sc1nc2ccccc2c(=O)n1C1CCCCC1)C(=O)N1CCC(C(N)=O)CC1 (stereo not drawn)
17	–	IC50 [3]: 24 µM	CCCCC(Sc1nc2ccccc2c(=O)n1-c1ccccc1)C(=O)N1CCC(C(N)=O)CC1 (stereo not drawn)
–	20	–	CCCCC(Sc1nc2ccccc2c(=O)n1C(C)C)C(=O)N1CCC(C(N)=O)CC1 (stereo not drawn)
> 100	–	–	CC(C)C(Sc1nc2ccccc2c(=O)n1-c1cccc(Cl)c1)C(=O)N1CCC(C(N)=O)CC1 (stereo not drawn)
–	20	–	CCCCC(Sc1nc2ccccc2c(=O)n1-c1ccnc(Cl)c1)C(=O)N1CCC(C(N)=O)CC1 (stereo not drawn)
–	62	–	CCCCC(Sc1nc2ccccc2c(=O)n1-c1ccccc1)C(=O)N(CC)CC (stereo not drawn)
17	–	–	CCCCC(Sc1nc2c(C)cccc2c(=O)n1-c1cccc(Cl)c1)C(=O)N1CCC(C(N)=O)CC1 (stereo not drawn)
4.5	–	–	CCCCC(Sc1nc2ccccc2c(=O)n1-c1ccccc1)C(=O)N1CCC(c2ccccc2)(c2ccccc2)CC1 (stereo not drawn)
–	3	–	CCCCC(Sc1nc2ccccc2c(=O)n1-c1ccccc1)C(=O)NC1CC2CCC1C2 (stereo not drawn)
3.8	–	–	CCCCC(Sc1nc2ccccc2c(=O)n1-c1ccccc1)C(=O)N1CCCC2(CCCNC2)C1 (stereo not drawn)
> 100	–	–	CCCCC(Sc1nc2ccccc2c(=O)n1-c1ccccc1)C(=O)NC12CC3CC(CC(C3)C1)C2 (stereo not drawn)
–	48	–	CCCCC(Sc1nc2ccccc2c(=O)n1C)C(=O)N1CCC(C(N)=O)CC1 (stereo not drawn)
28	–	–	CCCCC(Sc1nc2cc(C)ccc2c(=O)n1-c1cccc(Cl)c1)C(=O)N1CCC(C(N)=O)CC1 (stereo not drawn)
> 100	–	–	CCCCC(Sc1nc2ccccc2c(=O)n1-c1ccc(Cl)cc1)C(=O)N1CCC(C(N)=O)CC1 (stereo not drawn)
21	–	–	NC(=O)C1CCN(C(=O)C(Sc2nc3ccccc3c(=O)n2-c2cccc(Cl)c2)c2ccccc2)CC1 (stereo not drawn)
> 100	–	–	CCCCC(Sc1nc2ccccc2c(=O)n1-c1ccccc1)C(=O)NC1CCCCC1 (stereo not drawn)
21	–	–	CCCCC(Sc1nc2c(OC)cccc2c(=O)n1-c1cccc(Cl)c1)C(=O)N1CCC(C(N)=O)CC1 (stereo not drawn)
–	30	–	CCCCC(Sc1nc2ccc(C)cc2c(=O)n1-c1cccc(Cl)c1)C(=O)N1CCC(C(N)=O)CC1 (stereo not drawn)
–	26	–	CCCCC(Sc1nc2ccccc2c(=O)n1Cc1cccnc1)C(=O)N1CCC(C(N)=O)CC1 (stereo not drawn)
> 100	–	–	CCCCC(Sc1nc2ccccc2c(=O)n1-c1ccccc1)C(=O)NC(C)(C)C (stereo not drawn)
6	–	–	CCCCC(Sc1nc2ccccc2c(=O)n1-c1ccccc1)C(=O)N1CCS(=O)(=O)CC1 (stereo not drawn)
> 100	–	–	CCCCC(Sc1nc2cccc(C)c2c(=O)n1-c1cccc(Cl)c1)C(=O)N1CCC(C(N)=O)CC1 (stereo not drawn)
–	35	–	CCCCC(Sc1nc2ccccc2c(=O)n1-c1cccnc1)C(=O)N1CCC(C(N)=O)CC1 (stereo not drawn)
2.8	–	–	CC(C)CC(Sc1nc2ccccc2c(=O)n1-c1cccc(Cl)c1)C(=O)N1CCC(C(N)=O)CC1 (stereo not drawn)
